Data on 2 molecules can be found in patent US9951039B2, “Pyrimidines for treatment of bacterial infections” (The Hong Kong Polytechnic University, priority 2016, dated 2018).

Values after ≈ are worked out from the molar mass of the structure shown. Where two headings read alike, the source gives them in different places.

Assay [1] has as its system USA300 #2690 (community-associated MRSA). Nature of the assay: MIC against clinically isolated strain 9. The assay is classed as cell-based, S. aureus. The settings on record: Staphylococcus aureus. Here is the method:
(§1) Procedure of Antimicrobial susceptibility test: The MIC value of compounds was measured in the antimicrobial susceptibility test using the broth microdilution procedure in accordance with the CLSI guidelines.^21 Cation-adjusted Mueller Hinton broth (CA-MHB) was used for all the S. aureus strains in the assay. Cells in exponential phase of growth were diluted to approximately 5×10^5 cfu/mL. Stock solutions of each compound were freshly dissolved in dimethyl sulfoxide (DMSO). Then, serial dilutions of each compound in CA-MHB medium were added into 96-well microplate. The final percentage of DMSO in the assay was 1%. Control experiments were performed with 1% DMSO instead of the compound solution. After being incubated at 37° C. for 18 h, OD600 value of cells was measured on a microplate reader and the percentage of bacterial cell inhibition with respect to controls was calculated. The MIC value was defined as the lowest compound concentration at which the growth of bacteria was inhibited by ≥90%. Three independent assays were performed for each compound.
(§2) Results: Three compounds, namely 14av_amine16, 14dv_amine16 and 14dv_amine06, were selected to be tested against nine in-house clinically isolated bacterial strains including S. aureus ATCC29247, which is an ampicillin resistant strain, S. aureus ATCC BAA-41, ATCC BAA-1717, ATCC BAA-1720, ATCC 43300 which are methicillin resistant strains and four USA300 strains, (#417, #757, #1799 and #2690), which are the predominant strain type of community-associated MRSA strains in the United States.

Assay [2] relates to S. aureus ATCC BAA-1717 (methicillin resistant). Briefly: MIC against clinically isolated strain 2. The assay is classed as cell-based. The settings on record: Staphylococcus aureus, ATCCBAA1717. The protocol: as §1, §2
The subject of assay [3] is S. aureus ATCC 43300 (methicillin resistant). Briefly: MIC against clinically isolated strain 5. The assay is classed as cell-based. The settings on record: Staphylococcus aureus, ATCC43300. The protocol:
as §1, §2

For assay [4], the system named is S. aureus ATCC BAA-1720 (methicillin resistant). Briefly: MIC against clinically isolated strain 3. The assay is classed as cell-based. Particulars: Staphylococcus aureus, ATCCBAA1720. Here is the method: as §1, §2
A further assay deals with E. coli strain ATCC25922. Briefly: MIC, broth microdilution antimicrobial susceptibility test (CLSI). The format is cell-based. Particulars: Escherichia coli, ATCC25922; E. coli ATCC 25922; growth inhibited by ≥90%, 18 h; read-out: MIC^c: Minimum inhibitory concentration against E. coli.
Excerpt: (§3) This example illustrates the evaluation of 2,4,6-trisubstituted pyrimidines 14 for their antimicrobial activities against the Gram positive S. aureus strain ATCC29213 and the Gram negative E. coli strain ATCC25922 by measuring their MIC, which is the lowest concentration of an antimicrobial agent that prevents visible growth of a microorganism in a broth dilution susceptibility test according to the standard method approved by the Clinical and Laboratory Standards Institute (CLSI) guidelines.^21
as §1

The test system of assay [5] is S. aureus strain ATCC29213. Described as above. The assay is classed as cell-based. Particulars: for MIC: Staphylococcus aureus.
Excerpt: as §3, §1

The subject of assay [6] is S. aureus ATCC 29247 (ampicillin resistant strain). Nature of the assay: MIC against clinically isolated strain 1. The settings on record: Staphylococcus aureus, ATCC29247. The assay is classed as cell-based. Here is the method:
as §1, §2

For assay [7], the system named is USA300 #757 (community-associated MRSA). Nature of the assay: MIC against clinically isolated strain 7. The format is cell-based, S. aureus. The settings on record: Staphylococcus aureus. Here is the method:
as §1, §2

The subject of assay [8] is USA300 #1799 (community-associated MRSA). Briefly: MIC against clinically isolated strain 8. The format is cell-based, S. aureus. The settings on record: Staphylococcus aureus. Here is the method: as §1, §2
For assay [9], the system named is USA300 #417 (community-associated MRSA). Nature of the assay: MIC against clinically isolated strain 6. Particulars: Staphylococcus aureus. The format is cell-based, S. aureus. Here is the method:
as §1, §2

In assay [10] the test system is S. aureus ATCC BAA-41 (methicillin resistant). Nature of the assay: MIC against clinically isolated strain 4. The format is cell-based. Particulars: Staphylococcus aureus, ATCCBAA41. The protocol: as §1, §2
Assay [11] deals with clinically isolated S. aureus strains. Briefly: MIC against the nine clinically isolated S. aureus strains. The settings on record: Staphylococcus aureus; most of the MRSA strains. The assay is classed as cell-based. Here is the method:
as §1, with “compound. […]” for “compound.”

Consider `FC(F)(F)c1ccc(CN2CCCN(CCc3cc(-c4ccccc4)nc(-c4ccncc4)n3)CC2)cc1` [Compound 14dv_amine16, 1-(2-(6-phenyl-2-(pyridin-4-yl)pyrimidin-4-yl)ethyl)-4-(4-(trifluoromethyl)benzyl)-1,4-diazepane], for which the MIC was 10 µM (≈ 5.18 µg/mL) in [1]; 5 µM (≈ 2.59 µg/mL) in assay [2]; 10 µM (≈ 5.18 µg/mL) in [3]; 10 µM (≈ 5.18 µg/mL) in assay [4]; greater than 125 µM in the assay on E. coli strain ATCC25922; 5 µM (≈ 2.59 µg/mL) in assay [5] (ATCC29213, S. aureus 29213, growth inhibited by ≥90%, 18 h, read-out: MIC^b: Minimum inhibitory concentration against S. aureus). For the same molecule, the MIC is 5 to 8 µM (≈ 2.59 to 4.14 µg/mL) in assay [5] (S. aureus ATCC29213, read-out: MIC against S. aureus); 5 µM (≈ 2.59 µg/mL) in assay [6]; 10 µM (≈ 5.18 µg/mL) in [7]; 10 µM (≈ 5.18 µg/mL) in [8]; 10 µM (≈ 5.18 µg/mL) in [9]; 10 µM (≈ 5.18 µg/mL) in [10]. Moreover, the “MIC^c/MIC^b: Selectivity index” value in assay [5] (E. coli ATCC 25922 MIC over S. aureus 29213 MIC) is greater than 25.
`COc1cccc(OC)c1C(=O)N[C@@H]1C(=O)N2[C@@H]1SC(C)(C)[C@@H]2C(=O)O` [Methicillin, reference compound]: the MIC was 15 µM (≈ 5.71 µg/mL) in assay [1]; greater than 30 µM in assay [2]; greater than 30 µM in assay [3]; greater than 30 µM in [4]; 30 µM (≈ 11.4 µg/mL) in assay [7]; 30 µM (≈ 11.4 µg/mL) in assay [8]. The MIC in [9], in [10] and in [11] was greater than 30 µM each time.
